Measured values reported in PubChem BioAssay AID256 (DTP/NCI, 2004).
Where “and” joins values, the source holds several entries; their conditions need not be identical. Equal values may be shown once. Toxic doses and inconclusive results are not listed.

Test system: CD2F1 mice, L1210 leukemia ip, survival T/C
Assay: NCI In Vivo Anticancer Drug Screen. Data for tumor model L1210 Leukemia (intraperitoneal) in CD2F1 (CDF1) mice
Conditions: higher = longer survival
How it was run: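 Tumor-bearing mice (transplanted tumor) were split into treated and vehicle control groups, and the measured endpoint of each treated group was divided by that of its vehicle controls.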

For Cc1c2ccncc2c(C)c2c1[nH]c1ccccc12, which T/C (endpoint: mean survival time, dose: 2.0 mg/kg/injection, schedule: Q01DX009 (ip), vehicle: saline with Tween-80) is on record?
The T/C was 113 % of control and 114 % of control and 105 % of control.

What about the T/C (endpoint: mean survival time, dose: 3.13 mg/kg/injection, schedule: Q01DX009 (ip), vehicle: water) of the same compound?
Its T/C is 119 % of control.

And the T/C (endpoint: mean survival time, dose: 4.0 mg/kg/injection, schedule: Q01DX009 (ip), vehicle: saline with Tween-80)?
The T/C was 122 % of control and 124 % of control.

And the T/C (endpoint: mean survival time, dose: 6.25 mg/kg/injection, schedule: Q01DX009 (ip), vehicle: other)?
The T/C was 157 % of control.

What about the T/C (endpoint: mean survival time, dose: 6.25 mg/kg/injection, schedule: Q01DX009 (ip), vehicle: water) of the same compound?
Its T/C is 151 % of control.

And the T/C (endpoint: mean survival time, dose: 6.25 mg/kg/injection, schedule: Q01DX009 (oral), vehicle: other)?
The T/C was 116 % of control.

And the T/C (endpoint: mean survival time, dose: 6.25 mg/kg/injection, schedule: Q01DX009 (oral), vehicle: saline)?
Its T/C is 117 % of control.

And the T/C (endpoint: mean survival time, dose: 6.25 mg/kg/injection, schedule: Q01DX009 (oral), vehicle: water)?
Its T/C is 123 % of control.

And the T/C (endpoint: mean survival time, dose: 6.25 mg/kg/injection, schedule: Q04DX003 (ip), vehicle: other)?
The T/C was 112 % of control.

What about the T/C (endpoint: mean survival time, dose: 6.25 mg/kg/injection, schedule: Q04DX003 (ip), vehicle: water) of the same compound?
The T/C was 108 % of control.

What about the T/C (endpoint: mean survival time, dose: 10.0 mg/kg/injection, schedule: Q01DX001 (ip), vehicle: water) of the same compound?
Its T/C is 104 % of control.

And the T/C (endpoint: mean survival time, dose: 10.0 mg/kg/injection, schedule: Q01DX009 (ip), vehicle: saline with Tween-80)?
Its T/C is 153 % of control.

And the T/C (endpoint: mean survival time, dose: 10.0 mg/kg/injection, schedule: Q04DX003 (ip), vehicle: saline with Tween-80)?
The T/C was 123 % of control.

And the T/C (endpoint: mean survival time, dose: 12.5 mg/kg/injection, schedule: Q01DX009 (ip), vehicle: other)?
The T/C was 198 % of control.

And the T/C (endpoint: mean survival time, dose: 12.5 mg/kg/injection, schedule: Q01DX009 (ip), vehicle: saline)?
The T/C was 180 % of control.

And the T/C (endpoint: mean survival time, dose: 12.5 mg/kg/injection, schedule: Q01DX009 (ip), vehicle: water)?
The T/C was 208 % of control.

What about the T/C (endpoint: mean survival time, dose: 12.5 mg/kg/injection, schedule: Q01DX009 (oral), vehicle: saline) of the same compound?
The T/C was 109 % of control.

What about the T/C (endpoint: mean survival time, dose: 12.5 mg/kg/injection, schedule: Q04DX003 (ip), vehicle: distilled water + Tween-80) of the same compound?
The T/C was 111 % of control.

And the T/C (endpoint: mean survival time, dose: 12.5 mg/kg/injection, schedule: Q04DX003 (ip), vehicle: saline with Tween-80)?
The T/C was 123 % of control.

And the T/C (endpoint: mean survival time, dose: 12.5 mg/kg/injection, schedule: Q04DX003 (ip), vehicle: water)?
Its T/C is 122 % of control and 124 % of control.

And the T/C (endpoint: mean survival time, dose: 12.5 mg/kg/injection, schedule: Q04DX003 (oral), vehicle: other)?
The T/C was 103 % of control and 108 % of control.

And the T/C (endpoint: mean survival time, dose: 12.5 mg/kg/injection, schedule: Q04DX003 (oral), vehicle: saline)?
Its T/C is 113 % of control and 107 % of control.

What about the T/C (endpoint: mean survival time, dose: 12.5 mg/kg/injection, schedule: Q04DX003 (oral), vehicle: water) of the same compound?
The T/C was 114 % of control and 109 % of control.

And the T/C (endpoint: mean survival time, dose: 20.0 mg/kg/injection, schedule: Q01DX001 (ip), vehicle: water)?
The T/C was 104 % of control.

What about the T/C (endpoint: mean survival time, dose: 20.0 mg/kg/injection, schedule: Q01DX009 (ip), vehicle: saline with Tween-80) of the same compound?
The T/C was 188 % of control and 205 % of control.

What about the T/C (endpoint: mean survival time, dose: 20.0 mg/kg/injection, schedule: Q04DX003 (ip), vehicle: saline with Tween-80) of the same compound?
Its T/C is 157 % of control.

What about the T/C (endpoint: mean survival time, dose: 25.0 mg/kg/injection, schedule: Q01DX009 (ip), vehicle: other) of the same compound?
Its T/C is 118 % of control.

And the T/C (endpoint: mean survival time, dose: 25.0 mg/kg/injection, schedule: Q01DX009 (ip), vehicle: saline)?
The T/C was 218 % of control.

And the T/C (endpoint: mean survival time, dose: 25.0 mg/kg/injection, schedule: Q01DX009 (ip), vehicle: water)?
Its T/C is 100 % of control.

And the T/C (endpoint: mean survival time, dose: 25.0 mg/kg/injection, schedule: Q01DX009 (oral), vehicle: other)?
Its T/C is 163 % of control.

What about the T/C (endpoint: mean survival time, dose: 25.0 mg/kg/injection, schedule: Q01DX009 (oral), vehicle: water) of the same compound?
The T/C was 159 % of control.

And the T/C (endpoint: mean survival time, dose: 25.0 mg/kg/injection, schedule: Q04DX003 (ip), vehicle: distilled water + Tween-80)?
The T/C was 121 % of control.

And the T/C (endpoint: mean survival time, dose: 25.0 mg/kg/injection, schedule: Q04DX003 (ip), vehicle: saline)?
Its T/C is 156 % of control.

And the T/C (endpoint: mean survival time, dose: 25.0 mg/kg/injection, schedule: Q04DX003 (ip), vehicle: water)?
The T/C was 157 % of control and 190 % of control.

What about the T/C (endpoint: mean survival time, dose: 25.0 mg/kg/injection, schedule: Q04DX003 (oral), vehicle: other) of the same compound?
The T/C was 116 % of control.

What about the T/C (endpoint: mean survival time, dose: 25.0 mg/kg/injection, schedule: Q04DX003 (oral), vehicle: saline) of the same compound?
The T/C was 116 % of control and 118 % of control.

And the T/C (endpoint: mean survival time, dose: 25.0 mg/kg/injection, schedule: Q04DX003 (oral), vehicle: water)?
The T/C was 116 % of control.

And the T/C (endpoint: mean survival time, dose: 32.0 mg/kg/injection, schedule: Q01DX009 (ip), vehicle: saline with Tween-80)?
The T/C was 182 % of control.

And the T/C (endpoint: mean survival time, dose: 40.0 mg/kg/injection, schedule: Q01DX009 (ip), vehicle: saline with Tween-80)?
The T/C was 153 % of control.

What about the T/C (endpoint: mean survival time, dose: 40.0 mg/kg/injection, schedule: Q04DX003 (ip), vehicle: saline with Tween-80) of the same compound?
Its T/C is 182 % of control and 202 % of control.

What about the T/C (endpoint: mean survival time, dose: 50.0 mg/kg/injection, schedule: Q01DX009 (ip), vehicle: other) of the same compound?
Its T/C is 92 % of control.

What about the T/C (endpoint: mean survival time, dose: 50.0 mg/kg/injection, schedule: Q01DX009 (ip), vehicle: saline) of the same compound?
Its T/C is 185 % of control.

What about the T/C (endpoint: mean survival time, dose: 50.0 mg/kg/injection, schedule: Q01DX009 (ip), vehicle: water) of the same compound?
Its T/C is 87 % of control.

And the T/C (endpoint: mean survival time, dose: 50.0 mg/kg/injection, schedule: Q01DX009 (oral), vehicle: saline)?
Its T/C is 152 % of control.

And the T/C (endpoint: mean survival time, dose: 50.0 mg/kg/injection, schedule: Q01DX009 (oral), vehicle: water)?
Its T/C is 107 % of control.

And the T/C (endpoint: mean survival time, dose: 50.0 mg/kg/injection, schedule: Q04DX003 (ip), vehicle: distilled water + Tween-80)?
Its T/C is 156 % of control.

And the T/C (endpoint: mean survival time, dose: 50.0 mg/kg/injection, schedule: Q04DX003 (ip), vehicle: saline with Tween-80)?
The T/C was 119 % of control.

What about the T/C (endpoint: mean survival time, dose: 50.0 mg/kg/injection, schedule: Q04DX003 (ip), vehicle: saline) of the same compound?
The T/C was 177 % of control.

What about the T/C (endpoint: mean survival time, dose: 50.0 mg/kg/injection, schedule: Q04DX003 (ip), vehicle: water) of the same compound?
Its T/C is 186 % of control.

What about the T/C (endpoint: mean survival time, dose: 50.0 mg/kg/injection, schedule: Q04DX003 (oral), vehicle: other) of the same compound?
The T/C was 153 % of control.

And the T/C (endpoint: mean survival time, dose: 50.0 mg/kg/injection, schedule: Q04DX003 (oral), vehicle: saline)?
Its T/C is 167 % of control.

What about the T/C (endpoint: mean survival time, dose: 50.0 mg/kg/injection, schedule: Q04DX003 (oral), vehicle: water) of the same compound?
Its T/C is 152 % of control and 158 % of control.

And the T/C (endpoint: mean survival time, dose: 64.0 mg/kg/injection, schedule: Q01DX009 (ip), vehicle: saline with Tween-80)?
Its T/C is 120 % of control and 102 % of control and 107 % of control.

And the T/C (endpoint: mean survival time, dose: 80.0 mg/kg/injection, schedule: Q01DX001 (ip), vehicle: water)?
Its T/C is 162 % of control.

And the T/C (endpoint: mean survival time, dose: 100.0 mg/kg/injection, schedule: Q01DX001 (ip), vehicle: other)?
Its T/C is 205 % of control.

What about the T/C (endpoint: mean survival time, dose: 100.0 mg/kg/injection, schedule: Q01DX009 (oral), vehicle: saline) of the same compound?
Its T/C is 94 % of control.

And the T/C (endpoint: mean survival time, dose: 100.0 mg/kg/injection, schedule: Q04DX003 (ip), vehicle: distilled water + Tween-80)?
The T/C was 163 % of control and 177 % of control.

And the T/C (endpoint: mean survival time, dose: 100.0 mg/kg/injection, schedule: Q04DX003 (ip), vehicle: saline)?
The T/C was 216 % of control.

What about the T/C (endpoint: mean survival time, dose: 100.0 mg/kg/injection, schedule: Q04DX003 (oral), vehicle: saline) of the same compound?
Its T/C is 163 % of control and 179 % of control.

And the T/C (endpoint: mean survival time, dose: 200.0 mg/kg/injection, schedule: Q01DX001 (ip), vehicle: other)?
Its T/C is 224 % of control.

And the T/C (endpoint: mean survival time, dose: 200.0 mg/kg/injection, schedule: Q04DX003 (ip), vehicle: distilled water + Tween-80)?
The T/C was 113 % of control and 104 % of control.

What about the T/C (endpoint: mean survival time, dose: 200.0 mg/kg/injection, schedule: Q04DX003 (oral), vehicle: other) of the same compound?
Its T/C is 113 % of control.

And the T/C (endpoint: mean survival time, dose: 200.0 mg/kg/injection, schedule: Q04DX003 (oral), vehicle: saline)?
The T/C was 122 % of control and 102 % of control.

What about the T/C (endpoint: mean survival time, dose: 400.0 mg/kg/injection, schedule: Q01DX001 (ip), vehicle: other) of the same compound?
Its T/C is 186 % of control.

And the T/C (endpoint: mean survival time, dose: 400.0 mg/kg/injection, schedule: Q04DX003 (oral), vehicle: other)?
Its T/C is 96 % of control.

What about the T/C (endpoint: median survival time, dose: 10.0 mg/kg/injection, schedule: Q01DX001 (ip), vehicle: water) of the same compound?
Its T/C is 106 % of control.

And the T/C (endpoint: median survival time, dose: 20.0 mg/kg/injection, schedule: Q01DX001 (ip), vehicle: water)?
Its T/C is 117 % of control.

What about the T/C (endpoint: median survival time, dose: 80.0 mg/kg/injection, schedule: Q01DX001 (ip), vehicle: water) of the same compound?
The T/C was 153 % of control.
